# According to patent US9732151B2, “Biomarkers for TSLP treatment” (Merck Sharp & Dohme Corp., priority 2011, dated 2017):
# How the values were obtained:
# [1] = test system: biomarker genes in lung tissue of TSLP Tg mice; experiment: qRT-PCR of biomarker genes in lung tissue, steroid-treated TSLP Tg mice; format: in vivo
# Procedure: TSLP Tg mice, on the BALB/c background, were obtained from the laboratory of Steven Ziegler. Zhou et al., Nat. Immunol. 6:1047-53 (2005). Non-transgenic littermates served as control mice. BALB/c mice (for ovalbumin (OVA)-induced asthma experiments) were purchased from the Jackson Laboratory. The standard model of OVA-induced asthma described below was used. In dexamethasone-treatment experiments, 12 week-old TSLP Tg mice were injected i.p. daily for 2 weeks with 2 mg/kg dexamethasone 21-phosphate disodium salt (Sigma) in sterile PBS, or with sterile PBS alone as a control. Colonies were maintained in a specific pathogenic-free environment.
# Harvest of murine BAL fluid, BAL cells, and lung tissue: BAL fluid was isolated by washing the lung (through the trachea) with 1mL of PBS. Lavage fluid was kept on ice and centrifuged at 400g for 5 min. The supernatant was frozen for cytokine analysis, and the cell pellet was resuspended in 1mL of PBS for total viable cell count by Vi-CELL ([…]) and cell differentials by cytospin. Slides were air-dried, fixed with 95% ethanol, and stained with Wright-Giemsa (Sigma-Aldrich). A minimum of 200 cells were counted under the microscope per slide for cell differentials. The postcaval lung lobe and BAL cells were collected and snap-frozen in liquid nitrogen for qRT-PCR analysis as described previously for tissue (Chan et al., J. Exp. Med. 203:2577-87 (2006)) and below for BAL cells. The single left lung lobe was excised for histology and clinical scoring as described below.
# (§1) mRNA isolation from BAL cells and qRT-PCR: Total RNA was isolated from BAL cells using the RNeasy method (Qiagen, Valencia, Calif.) and reverse-transcribed using WT-OVATION ® (chemicals, assays, and reagents for nucleic acid sequence amplification, sequencing and sequence analysis and detection) Pico System (NuGen Technologies, San Carlos Calif.). Primers were designed using Primer Express software (Applied Biosystem, Foster City, Calif.) or obtained commercially from Applied Biosystems (ABI). qRT-PCR was performed on 10 ng of cDNA from each sample as described previously. Chan et al., J. Exp. Med. 203:2577-87 (2006).
# [2] = test system: biomarkers in BAL fluid or cell mRNA; experiment: Table VIII summary: biomarkers down with steroids in BAL fluid or BAL cell mRNA; format: in vivo, mice
# Source text: as §1
# Western blot analysis of BAL fluid samples: Western blot analysis was performed on BAL fluid samples. 200 uL of each BAL fluid sample was acetone precipitated in 4 volumes of cold acetone overnight and resuspended in 1× NUPAGE® (chemical preparations used for life sciences research) LDS sample loading buffer. An equal amount was separated on a 4-12% NUPAGE® (chemical preparations used for life sciences research) gels, and gels were electroblotted onto PVDF membranes overnight at 10V in NUPAGE® (chemical preparations used for life sciences research) transfer buffer. Membranes were blocked in 5% fat-free milk in TBS/T (10mM TrisHC1 pH 7.5, 100 mM NaC1, 0.1% TWEEN® 20 (polysorbate 20)) for 1 hour and incubated with specific antibodies according to the manufacturer's instructions in 1% milk in TBS/T for another 2 hours. Blots were incubated with HRP-labeled secondary antibodies (chicken anti-goat) IgG, R&D Systems, Minneapolis, Minn. or donkey anti-rabbit Ig-G, GE Healthcare, Piscataway, N.J.) in 1% milk in TB S/T for another hour and detection was performed with ECL+(GE Healthcare). Primary antibodies used included anti-mouse LCN2, anti-mouse sICAM-1, anti-human sICAM-1 (for monkey studies), anti-mouse GP-39, anti-mouse YM1, and anti-mouse pIgR (all from R&D Systems); and anti-mouse UG, anti-mouse AMCase, anti-human AMCase (for monkey studies), anti-mouse CLCA3, and anti-human CLCA1 (for monkey studies) (all from Santa Cruz Biotechnology, Santa Cruz, Calif.). Polyclonal anti-mouse Reg3γ was generated at Schering-Plough Biopharma. After autoradiography visualization, membranes were dried and scanned on a Typhoon 9400 (GE Healthcare) for ECL+(457 nm excitation and 520BP40 emission). Image analysis was conducted using ImageQuant v5.2 (GE Healthcare) and band intensity reported as sum of pixel values above background.
# ELISAs: Mouse LCN2, GP-39, sICAM-1, and YM1 proteins were quantified using QUANTIKINE® (in vitro immunoassay kits) or DUOSET® (biological reagents for use in research applications to identify cytokines by immunoassay) ELISA kits (R&D Systems) using a Vmax spectrophotometer with SoftMax Pro software (Molecular Devices); mouse IL-4, IL-5, and IL-13 were measured using a Luminex 100 machine with LINCOPLEX® (panels for taking immunoassay measurements and testing cytokine and endocrine hormones) multiplex kits (Millipore) and analyzed with MasterPlex software (Miraibio). Monkey YKL-40 was quantified via ELISA (Quidel), analyzed as above.
# [3] = test system: biomarker genes in skin of calcipotriol treated mice; experiment: Vitamin D (calcipotriol) induced skin inflammation, real-time PCR of skin mRNA, +/- anti-TSLP; format: in vivo, mice (Balb/c); conditions: calcipotriol 2 nmol/ear daily, skin at day 8 (FIG. 5)
# Procedure: (§2) Vitamin D Induced Skin Inflammation: The vitamin D analogue, calcipotriol (Tocris, Ellisville, Mo.), was dissolved in ethanol and was applied daily to both sides of the ears at a final concentration of 2 nmol/ear. Control animals were given ethanol only. Ear swelling was measured daily using an engineer's pressure gauge (Peacock, Japan) and blood was collected. The blood was spun at 10.000 rpm for 5 minutes to separate the serum, which was frozen at −80 C. until analyzed by ELISA. Calcipotriol applications were stopped on day 8 (Balb/c mice), ears were harvested and fixed in 10% formalin for pathological evaluation or frozen directly in liquid nitrogen for mRNA extraction.
# Neutralization Experiments: mice were treated with 0.1, 0.4, 1, 4, 12, 40 and 120 mgs per kg (mpk) of a rat anti-mouse TSLP antibody (designated “22E5”) subcutaneously (s.c.) one day (d−1) prior to VitD3 treatment. Control mice received isotype antibody at 4 and 40 mpk. The mice were sacrificed at day 8.
# Real-time PCR was conducted on mRNA extracted from skin tissue of mice treated with calcipotriol in the absence or the presence of an antagonistic anti-TSLP antibody or an isotype control
# [4] = test system: biomarker genes in skin of TSLPR KO mice; experiment: Calcipotriol skin inflammation in TSLPR KO mice, real-time PCR of skin mRNA; format: in vivo; conditions: calcipotriol vs ethanol
# Procedure: as §2, with “Mice: Six- to eight-week-old Balb/c were obtained from Jackson Labs (Bar Harbour, Me.). TSLPR KO mice were obtained from Dr. W. Leonard, NIH, Bethesda, Md. (Al Shami et al., J. Exp. Med. 200:159-168 (2004). Age-matched males were used for the time-course study and females for two efficacy studies. Vitamin” for “Vitamin”, “-80” for “−80”, “extraction. […] Similarly, real-time PCR was conducted on mRNA extracted from skin tissue of TSLPR KO mice treated with either ethanol (vehicle control) or calcipotriol.” for “extraction.”
# [5] = test system: biomarker proteins in BAL fluid of HDMA-challenged monkeys; experiment: BAL fluid biomarkers (western blot, ELISA) in HDMA-challenged monkeys before and after corticosteroid therapy; format: in vivo, cynomolgus macaques (Macaca fascicularis)
# Procedure: Western blot analysis of BAL fluid samples: Western blot analysis was performed on BAL fluid samples. 200 uL of each BAL fluid sample was acetone precipitated in 4 volumes of cold acetone overnight and resuspended in 1× NUPAGE® (chemical preparations used for life sciences research) LDS sample loading buffer. An equal amount was separated on a 4-12% NUPAGE® (chemical preparations used for life sciences research) gels, and gels were electroblotted onto PVDF membranes overnight at 10V in NUPAGE® (chemical preparations used for life sciences research) transfer buffer. Membranes were blocked in 5% fat-free milk in TBS/T (10mM TrisHC1 pH 7.5, 100 mM NaC1, 0.1% TWEEN® 20 (polysorbate 20)) for 1 hour and incubated with specific antibodies according to the manufacturer's instructions in 1% milk in TBS/T for another 2 hours. Blots were incubated with HRP-labeled secondary antibodies (chicken anti-goat) IgG, R&D Systems, Minneapolis, Minn. or donkey anti-rabbit Ig-G, GE Healthcare, Piscataway, N.J.) in 1% milk in TB S/T for another hour and detection was performed with ECL+(GE Healthcare). Primary antibodies used included anti-mouse LCN2, anti-mouse sICAM-1, anti-human sICAM-1 (for monkey studies), anti-mouse GP-39, anti-mouse YM1, and anti-mouse pIgR (all from R&D Systems); and anti-mouse UG, anti-mouse AMCase, anti-human AMCase (for monkey studies), anti-mouse CLCA3, and anti-human CLCA1 (for monkey studies) (all from Santa Cruz Biotechnology, Santa Cruz, Calif.). […] After autoradiography visualization, membranes were dried and scanned on a Typhoon 9400 (GE Healthcare) for ECL+(457 nm excitation and 520BP40 emission). Image analysis was conducted using ImageQuant v5.2 (GE Healthcare) and band intensity reported as sum of pixel values above background.
# At this time, animals were challenged with nebulized HDMA (1 to 2500 AU/mL for 4 minutes) at a concentration that induced an early asthmatic response, defined as a 100% increase in lung resistance, 40% decrease in dynamic compliance, or decline in arterial oxygen saturation to ≦70%. Airway inflammation and reactions to nebulized histamine and methacholine 24 hours after allergen challenge were measured periodically to confirm chronic asthmatic responses. Wardle-Fick methods were used to obtain BAL fluid. BAL cells were then separated from the fluid phase. […] In corticosteroid treatments experiments, animals were challenged with HDMA and BAL fluid was collected 24 hours later (“Pre”).
# HDMA-challenged monkeys = experiment: Asthma symptoms in HDMA-induced asthma in nonhuman primates after corticosteroid treatment; format: in vivo, cynomolgus macaques (Macaca fascicularis); conditions: high-dose corticosteroids for 2 weeks, data not shown
# Source text: House mite allergen (HDMA)-induced asthma in nonhuman primates: Juvenile macaques (Cynomolgus fascicularis, 30 to 42 months of age) were purchased from Alphagenesis (Yemassee, S.C.). Animals were sensitized to HDMA over a 7.5 month period by intraperitoneal injection of 312 AU Dermatophagoides pteronyssinus extract (Greer Laboratories, Lenoir, N.C.) absorbed to IMJECT® (reagents used in connection with enhancing immune responses) Alum (Pierce, Rockford, Ill.) administered every two weeks until HDMA-specific IgE titers approached levels in control allergic serum, and then at 4-week intervals until aeroallergen challenge. At this time, animals were challenged with nebulized HDMA (1 to 2500 AU/mL for 4 minutes) at a concentration that induced an early asthmatic response, defined as a 100% increase in lung resistance, 40% decrease in dynamic compliance, or decline in arterial oxygen saturation to ≦70%. Airway inflammation and reactions to nebulized histamine and methacholine 24 hours after allergen challenge were measured periodically to confirm chronic asthmatic responses. Wardle-Fick methods were used to obtain BAL fluid. BAL cells were then separated from the fluid phase. Mass spectrometry compared BAL fluid from sensitized animals before and after HDMA challenge. In corticosteroid treatments experiments, animals were challenged with HDMA and BAL fluid was collected 24 hours later (“Pre”). Animals then received weekly doses of methylprednisolone succinate (4.5 mg/kg intramuscularly) for two weeks, followed by a single dose of methylprednisolone acetate (10 mg/kg […].) one week later at the time of allergen challenge. BAL fluid was collected 24 hours following challenge (“Post”). Animal husbandry was conducted under USDA guidelines. All protocols were approved by the Institutional Animal Care and Use Committee of East Carolina University.
compound,measurement,setting,value
"C[C@@H]1C[C@H]2[C@@H]3CCC4=CC(=O)C=C[C@]4(C)[C@@]3(F)[C@@H](O)C[C@]2(C)[C@@]1(O)C(=O)CO [Steroids, dexamethasone]",Down with Steroids (Lung Tissue): CLCA3,[1],— (a dash indicates a biomarker not reduced upon treatment)
same,Down with Steroids (Lung Tissue): Chi3l4 (YM2),[1],— (a dash indicates a biomarker not reduced upon treatment)
same,Down with Steroids (Lung Tissue): ECP (Ear11),[1],— (a dash indicates a biomarker not reduced upon treatment)
same,Down with Steroids (Lung Tissue): FCGBP,[1],— (a dash indicates a biomarker not reduced upon treatment)
same,Down with Steroids (Lung Tissue): ICAM-1,[1],— (a dash indicates a biomarker not reduced upon treatment)
same,Down with Steroids (Lung Tissue): LCN2,[1],— (a dash indicates a biomarker not reduced upon treatment)
same,Down with Steroids (Lung Tissue): PGLYRP1,[1],— (a dash indicates a biomarker not reduced upon treatment)
same,Down with Steroids (Lung Tissue): RETNLβ,[1],— (a dash indicates a biomarker not reduced upon treatment)
same,Down with Steroids (Lung Tissue): Reg3γ,[1],— (a dash indicates a biomarker not reduced upon treatment)
same,Down with Steroids (BAL fluid or cell mRNA): AMCase (Chia),[2],— (a dash indicates a biomarker not reduced upon treatment)
same,Down with Steroids (BAL fluid or cell mRNA): ECP (Ear11),[2],— (a dash indicates a biomarker not reduced upon treatment)
same,Down with Steroids (BAL fluid or cell mRNA): LTF,[2],— (a dash indicates a biomarker not reduced upon treatment)
same,Down with Steroids (BAL fluid or cell mRNA): MMP12,[2],— (a dash indicates a biomarker not reduced upon treatment)
same,Down with Steroids (BAL fluid or cell mRNA): Reg3γ,[2],— (a dash indicates a biomarker not reduced upon treatment)
C=C1/C(=C\C=C2/CCC[C@]3(C)[C@@H]([C@H](C)/C=C/[C@@H](O)C4CC4)CC[C@@H]23)C[C@@H](O)C[C@@H]1O [calcipotriol],"upregulation of EAR11, MMP12, LCN2, YM1, YM2, YKL-40, Reg3 g, PGLYRP1, CD44 mRNA in skin",[3],≥ 2 fold
same,"EAR11, MMP12, and YM2 mRNA in skin",[4],not upregulated
"C[C@H]1C[C@@H]2[C@H]([C@@H](O)C[C@@]3(C)[C@H]2CC[C@]3(O)C(=O)COC(=O)CCC(=O)O)[C@@]2(C)C=CC(=O)C=C12 [corticosteroid, methylprednisolone succinate]",disease biomarkers in BAL fluid,"[5]; HDMA-challenged monkeys, 2 weeks of corticosteroid therapy (FIG. 4)",Reduction
same,"expression of LCN2, UG, pIgR, PAP, and CLCA1 in BAL fluid","[5]; Post vs Pre corticosteroid, trending downward, data not shown",not significantly reduced
same,GP-39 in BAL fluid,"[5]; by ELISA, Post vs Pre corticosteroid (FIG. 4B)",significantly reduced
same,"AMCase, sICAM-1, CLCA1 in BAL fluid","[5]; by western blot, Post vs Pre corticosteroid (FIG. 4A)",significantly reduced
same,airway eosinophil recruitment,HDMA-challenged monkeys,reduced
same,asthma symptoms,HDMA-challenged monkeys,reduced
same,lung function,HDMA-challenged monkeys,improved
